Measurements from patent US20110218103A1, “Fluoroalkyl-substituted 2-amidobenzimidazoles” (BAYER CROPSCIENCE AG, priority 2010, published 2011).

System: Zea mays (ZEAMX)
Test: Drought stress test on crop plants, spray application in greenhouse, visual damage rating
Type: in vivo
Details: 25 g/ha, mean of three results
Procedure: Seeds of monocotyledonous and dicotyledonous crop plants were placed in sandy loam in wood-fiber pots, covered with soil and cultivated in a greenhouse under good growth conditions. The test plants were treated at the early leaf stage (BBCH10-BBCH13). To ensure uniform water supply before commencement of stress, the potted plants were supplied with the maximum amount of water immediately beforehand by dam irrigation and, after application, transferred in plastic inserts in order to prevent subsequent, excessively rapid drying. The inventive compounds, formulated in the form of wettable powders (WP), wettable granules (WG), suspension concentrates (SC) or emulsion concentrates (EC), were sprayed onto the green parts of the plants as an aqueous suspension at an equivalent water application rate of 600 l/ha with addition of 0.2% wetting agent (agrotin). Substance application was followed immediately by stress treatment of the plants (cold or drought stress). For cold stress treatment, the plants were kept under the following controlled conditions: Drought stress was induced by gradual drying out under the following conditions: “day”: 14 hours with illumination at 26° C. “night”: 10 hours without illumination at 18° C. The duration of the respective stress phases was guided mainly by the state of the untreated, stressed control plants and thus varies from crop to crop. It was ended (by re-irrigating or transfer to a greenhouse with good growth conditions) as soon as irreversible damage is observed on the untreated, stressed control plants. In the case of dicotyledonous crops, for example oilseed rape and soya, the duration of the drought stress phase was between 3 and 5 days, in the case of monocotyledonous crops, for example wheat, barley or corn, between 6 and 10 days. The duration of the cold stress phase varied between 12 and 14 days. The end of the stress phase was followed by an approx. 5-7-day recovery phase, during which the plants were once again kept under good growth conditions in a greenhouse. In order to rule out any influence of the effects observed by any fungicidal action of the test compounds, it was additionally ensured that the tests proceed without fungal infection and without infection pressure. After the recovery phase had ended, the intensities of damage were rated visually compared to untreated, unstressed controls of the same age (in the case of drought stress) or the same growth stage (in the case of cold stress). The intensity of damage was first assessed as a percentage (100%=plants have died, 0%=like control plants). These values were then used to calculate the efficacy of the test compounds (=percentage reduction in the intensity of damage as a result of substance application) by the following formula: [formula] EF: efficacy (%) DVus: damage value of the untreated, stressed control DVts: damage value of the plants treated with test compound The tables below list mean values in each case from three results of the same test. Effects of selected compounds of the formula (I) under drought stress: ZEAMX=Zea mays

SMILES	EF (ZEAMX), efficacy = percentage reduction in the intensity of damage [%]
NC(=O)c1cccc2[nH]c(C(F)(F)C(F)(F)F)nc12 [1-2, 2-(pentafluoroethyl)-1H-benzimidazole-4-carboxamide]	>5
NC(=O)c1cccc2[nH]c(C(F)(F)C(F)(F)C(F)(F)F)nc12 [1-17]	>5
